{"source": "paper PMC5218480", "about": "(PLoS ONE, 2017)", "system": "MV-4-11 cells", "assay": "Gene expression microarray analysis (Affymetrix PrimeView) and GSEA", "format": "cell-based, human", "set-up": "RFU PODN (11730768_x_at) / Fold change /veh PODN (11730768_x_at) / RFU LINC00158 (11744669_a_at) / Fold change /veh LINC00158 (11744669_a_at) / RFU DUSP10 (11751237_a_at) / Fold change /veh DUSP10 (11751237_a_at) / RFU ID3 (11757404_x_at) / Fold change /veh ID3 (11757404_x_at) / RFU PLEKHG5 (11737974_s_at) / Fold change /veh PLEKHG5 (11737974_s_at) / RFU LRRC4B (11730491_at) / Fold change /veh LRRC4B (11730491_at) / RFU GIMAP4 (11747438_a_at) / Fold change /veh GIMAP4 (11747438_a_at) / RFU KRT8 (11758183_x_at) / Fold change /veh KRT8 (11758183_x_at) / RFU CNN1 (11734310_a_at) / Fold change /veh CNN1 (11734310_a_at) / RFU VPS37D (11726825_at) / Fold change /veh VPS37D (11726825_at) / RFU C10orf10 (11716522_x_at) / Fold change /veh C10orf10 (11716522_x_at) / RFU KIR2DL2 /// KIR2DL4 /// KIR2DL5A /// KIR2DL5B /// KIR2DS1 /// KIR2DS2 /// KIR2DS3 /// KIR2DS4 /// KIR3DL3 /// KIR3DL3 /// KIR3DS1 (11738374_at) / Fold change /veh KIR2DL2 /// KIR2DL4 /// KIR2DL5A /// KIR2DL5B /// KIR2DS1 /// KIR2DS2 /// KIR2DS3 /// KIR2DS4 /// KIR3DL3 /// KIR3DL3 /// KIR3DS1 (11738374_at) / RFU C1QL1 (11718748_at) / Fold change /veh C1QL1 (11718748_at) / RFU TMPRSS4 (11747572_a_at) / Fold change /veh TMPRSS4 (11747572_a_at) / RFU HAMP (11756126_x_at) / Fold change /veh HAMP (11756126_x_at) / RFU RNFT2 (11725882_a_at) / Fold change /veh RNFT2 (11725882_a_at) / RFU NR4A2 (11747474_a_at) / Fold change /veh NR4A2 (11747474_a_at) / RFU ABCC12 (11746883_a_at) / Fold change /veh ABCC12 (11746883_a_at) / RFU TMEM136 (11760407_x_at) / Fold change /veh TMEM136 (11760407_x_at) / RFU CLDN22 /// WWC2 (11732394_at) / Fold change /veh CLDN22 /// WWC2 (11732394_at) / RFU HLA-DPB1 (11760878_x_at) / Fold change /veh HLA-DPB1 (11760878_x_at) / RFU SPINT1 (11716480_a_at) / Fold change /veh SPINT1 (11716480_a_at) / RFU GAP43 (11754022_s_at) / Fold change /veh GAP43 (11754022_s_at) / RFU A4GNT (11735810_at) / Fold change /veh A4GNT (11735810_at) / RFU PRB3 (11715151_x_at) / Fold change /veh PRB3 (11715151_x_at) / RFU TUBB4B (11761932_at) / Fold change /veh TUBB4B (11761932_at) / RFU CAPN14 (11732068_a_at) / Fold change /veh CAPN14 (11732068_a_at) / RFU TMCC2 (11721928_a_at) / Fold change /veh TMCC2 (11721928_a_at) / RFU IRGQ (11745062_a_at) / Fold change /veh IRGQ (11745062_a_at) / RFU FAM174B (11720279_a_at) / Fold change /veh FAM174B (11720279_a_at) / RFU TMPRSS4 (11748680_a_at) / Fold change /veh TMPRSS4 (11748680_a_at) / RFU FAM212B (11763350_a_at) / Fold change /veh FAM212B (11763350_a_at) / RFU PLEKHG5 (11743358_a_at) / Fold change /veh PLEKHG5 (11743358_a_at) / RFU ZSCAN30 (11745921_a_at) / Fold change /veh ZSCAN30 (11745921_a_at) / RFU CMKLR1 (11741424_a_at) / Fold change /veh CMKLR1 (11741424_a_at) / RFU LOC101060620 /// MAPK8IP1 (11723275_at) / Fold change /veh LOC101060620 /// MAPK8IP1 (11723275_at) / RFU SPTSSB (11747773_x_at) / Fold change /veh SPTSSB (11747773_x_at) / RFU PRSS12 (11739890_at) / Fold change /veh PRSS12 (11739890_at) / RFU BIN1 (11741810_x_at) / Fold change /veh BIN1 (11741810_x_at) / RFU WNT11 (11732464_a_at) / Fold change /veh WNT11 (11732464_a_at) / RFU C10orf10 (11716521_a_at) / Fold change /veh C10orf10 (11716521_a_at) / RFU C5orf56 (11738089_at) / Fold change /veh C5orf56 (11738089_at) / RFU CYB561 (11721691_x_at) / Fold change /veh CYB561 (11721691_x_at) / RFU ANKRD19P (11752326_a_at) / Fold change /veh ANKRD19P (11752326_a_at) / RFU OR2T12 /// OR2T33 /// OR2T8 (11738714_s_at) / Fold change /veh OR2T12 /// OR2T33 /// OR2T8 (11738714_s_at) / RFU VCAN (11748164_a_at) / Fold change /veh VCAN (11748164_a_at) / RFU JSRP1 (11732532_at) / Fold change /veh JSRP1 (11732532_at) / RFU KRTAP10-11 (11738290_x_at) / Fold change /veh KRTAP10-11 (11738290_x_at) / RFU MYO3A (11730013_a_at) / Fold change /veh MYO3A (11730013_a_at) / RFU EBF3 (11725865_a_at) / Fold change /veh EBF3 (11725865_a_at) / RFU CAMK2N1 (11719241_x_at) / Fold change /veh CAMK2N1 (11719241_x_at) / RFU C5orf56 (11738088_a_at) / Fold change /veh C5orf56 (11738088_a_at) / RFU OLFML3 (11715873_a_at) / Fold change /veh OLFML3 (11715873_a_at) / RFU LOC100653217 /// NTM (11731650_a_at) / Fold change /veh LOC100653217 /// NTM (11731650_a_at) / RFU MAPK11 (11762145_a_at) / Fold change /veh MAPK11 (11762145_a_at) / RFU FIZ1 (11724087_x_at) / Fold change /veh FIZ1 (11724087_x_at) / RFU OASL (11726364_x_at) / Fold change /veh OASL (11726364_x_at) / RFU SOX15 (11748057_x_at) / Fold change /veh SOX15 (11748057_x_at) / RFU CD79A (11719716_a_at) / Fold change /veh CD79A (11719716_a_at) / RFU HIST1H1D (11736915_at) / Fold change /veh HIST1H1D (11736915_at) / RFU CASKIN2 (11723855_a_at) / Fold change /veh CASKIN2 (11723855_a_at) / RFU LOC730098 (11760151_x_at) / Fold change /veh LOC730098 (11760151_x_at) / RFU OR4N2 (11742367_at) / Fold change /veh OR4N2 (11742367_at) / RFU PRRT2 (11749266_a_at) / Fold change /veh PRRT2 (11749266_a_at) / RFU SNX32 (11753110_a_at) / Fold change /veh SNX32 (11753110_a_at) / RFU CDHR5 (11726645_a_at) / Fold change /veh CDHR5 (11726645_a_at) / RFU RCAN1 (11760418_a_at) / Fold change /veh RCAN1 (11760418_a_at) / RFU FAM167A (11723789_a_at) / Fold change /veh FAM167A (11723789_a_at) / RFU FAM26E (11764081_at) / Fold change /veh FAM26E (11764081_at) / RFU ISYNA1 (11749810_s_at) / Fold change /veh ISYNA1 (11749810_s_at) / RFU ACY1 (11761880_at) / Fold change /veh ACY1 (11761880_at) / RFU 11764098_at / Fold change /veh 11764098_at / RFU SAMD14 (11745864_x_at) / Fold change /veh SAMD14 (11745864_x_at) / RFU NPB (11741838_a_at) / Fold change /veh NPB (11741838_a_at) / RFU TMPRSS6 (11731388_a_at) / Fold change /veh TMPRSS6 (11731388_a_at) / RFU KRTAP10-2 (11738614_at) / Fold change /veh KRTAP10-2 (11738614_at) / RFU ARHGAP8 /// PRR5-ARHGAP8 (11727945_x_at) / Fold change /veh ARHGAP8 /// PRR5-ARHGAP8 (11727945_x_at) / RFU KRTAP5-7 /// NADSYN1 (11734609_at) / Fold change /veh KRTAP5-7 /// NADSYN1 (11734609_at) / RFU RASL12 (11751679_a_at) / Fold change /veh RASL12 (11751679_a_at) / RFU CDKN2B (11736163_a_at) / Fold change /veh CDKN2B (11736163_a_at) / RFU PRF1 (11729649_at) / Fold change /veh PRF1 (11729649_at) / RFU, ZNF638 /// ZNF638-IT1 / Fold change vs veh, ZNF638 /// ZNF638-IT1 / RFU, PANK3 / Fold change vs veh, PANK3 / RFU, SH3YL1 / Fold change vs veh, SH3YL1 / RFU, ZEB2 / Fold change vs veh, ZEB2 / RFU, NRIP1 / Fold change vs veh, NRIP1 / RFU, PTTG1IP / Fold change vs veh, PTTG1IP / RFU, CAPN2 / Fold change vs veh, CAPN2 / RFU, MED14 / Fold change vs veh, MED14 / RFU, SNORA58 / Fold change vs veh, SNORA58 / RFU, C1orf63 / Fold change vs veh, C1orf63 / RFU, LRRFIP1 / Fold change vs veh, LRRFIP1 / RFU, NDUFAF7 / Fold change vs veh, NDUFAF7 / RFU, SLC12A2 / Fold change vs veh, SLC12A2 / RFU, IBTK / Fold change vs veh, IBTK / RFU, ESF1 / Fold change vs veh, ESF1 / Fold change vs veh, TMEM50B / RFU, TAOK1 / Fold change vs veh, TAOK1 / RFU, ACBD3 / Fold change vs veh, ACBD3 / RFU, TMA16 / Fold change vs veh, TMA16 / RFU, RWDD3 / Fold change vs veh, RWDD3 / RFU, BCAT1 / Fold change vs veh, BCAT1 / RFU, EDEM3 / Fold change vs veh, EDEM3 / RFU, TMEM33 / Fold change vs veh, TMEM33 / RFU, WDR75 / Fold change vs veh, WDR75 / RFU, AHCTF1 / Fold change vs veh, AHCTF1 / RFU, TFRC / Fold change vs veh, TFRC / RFU, ZDHHC17 / Fold change vs veh, ZDHHC17 / RFU, NOM1 / Fold change vs veh, NOM1 / RFU, ARL8B / Fold change vs veh, ARL8B / RFU, ZBTB11 / Fold change vs veh, ZBTB11 / RFU, TAMM41 / Fold change vs veh, TAMM41 / RFU, KIAA1704 /// LOC100996395 / Fold change vs veh, KIAA1704 /// LOC100996395 / RFU, ING1 / Fold change vs veh, ING1 / RFU, TRMT61B / Fold change vs veh, TRMT61B / RFU, FUBP3 / Fold change vs veh, FUBP3 / RFU, TP53 / Fold change vs veh, TP53 / RFU, TNKS2 / Fold change vs veh, TNKS2 / RFU, ZFP14 / Fold change vs veh, ZFP14 / RFU, ACTR2 / Fold change vs veh, ACTR2 / RFU, PPP3R1 / Fold change vs veh, PPP3R1 / RFU, PIK3R1 / Fold change vs veh, PIK3R1 / RFU, HNRNPA1 / Fold change vs veh, HNRNPA1 / RFU, RNF170 / Fold change vs veh, RNF170 / RFU, ZNF28 / Fold change vs veh, ZNF28 / RFU, RNGTT / Fold change vs veh, RNGTT / RFU, OGT / Fold change vs veh, OGT / RFU, BRD1 / Fold change vs veh, BRD1 / RFU, MARS / Fold change vs veh, MARS / RFU, ZNF655 / Fold change vs veh, ZNF655 / RFU, FAHD1 / Fold change vs veh, FAHD1 / RFU, BDP1 / Fold change vs veh, BDP1 / RFU, LRRCC1 / Fold change vs veh, LRRCC1 / RFU, ARID1A / Fold change vs veh, ARID1A / RFU, ZNF146 / Fold change vs veh, ZNF146 / RFU, ZNF330 / Fold change vs veh, ZNF330 / RFU, GPN3 / Fold change vs veh, GPN3 / RFU, C9orf123 / Fold change vs veh, C9orf123 / RFU, N4BP2L2 / Fold change vs veh, N4BP2L2 / RFU, ARFIP1 / Fold change vs veh, ARFIP1 / RFU, FAM179B / Fold change vs veh, FAM179B / RFU, BCL10 / Fold change vs veh, BCL10 / RFU, UHRF1BP1L / Fold change vs veh, UHRF1BP1L / RFU, BET1 / Fold change vs veh, BET1 / RFU, CNOT2 / Fold change vs veh, CNOT2 / RFU, ZNF268 / Fold change vs veh, ZNF268 / Fold change vs veh, ZNF507 / RFU, DGCR2 / Fold change vs veh, DGCR2 / RFU, WDSUB1 / Fold change vs veh, WDSUB1 / Fold change vs veh, HSP90B1 /// MIR3652 / RFU, ADSS / Fold change vs veh, ADSS / RFU, GK / Fold change vs veh, GK / RFU, ZNF148 / Fold change vs veh, ZNF148 / RFU, TAF9 / Fold change vs veh, TAF9 / RFU, SLC1A5 / Fold change vs veh, SLC1A5 / RFU, SLMO2 / Fold change vs veh, SLMO2 / RFU, ABCC4 / Fold change vs veh, ABCC4 / RFU, LOC101060439 /// RAP1B / Fold change vs veh, LOC101060439 /// RAP1B / RFU, RFX7 / Fold change vs veh, RFX7 / RFU, GTPBP10 / Fold change vs veh, GTPBP10 / RFU, CNEP1R1 / Fold change vs veh, CNEP1R1 / RFU, BIVM-ERCC5 /// ERCC5 / Fold change vs veh, BIVM-ERCC5 /// ERCC5 / RFU, ILF3 / Fold change vs veh, ILF3 / RFU 11762660_at / Fold change /veh 11762660_at / RFU VCAN (11757783_s_at) / Fold change /veh VCAN (11757783_s_at) / RFU DDX43 (11728927_at) / Fold change /veh DDX43 (11728927_at) / RFU KRT8 (11758188_x_at) / Fold change /veh KRT8 (11758188_x_at) / RFU NKD1 (11759106_at) / Fold change /veh NKD1 (11759106_at) / RFU SRD5A1 (11742802_a_at) / Fold change /veh SRD5A1 (11742802_a_at) / RFU TPSAB1 /// TPSB2 (11721975_s_at) / Fold change /veh TPSAB1 /// TPSB2 (11721975_s_at) / RFU GSTM3 (11746129_a_at) / Fold change /veh GSTM3 (11746129_a_at) / RFU IL23R (11737362_x_at) / Fold change /veh IL23R (11737362_x_at) / RFU TMEM51 (11727254_a_at) / Fold change /veh TMEM51 (11727254_a_at) / RFU PIWIL2 (11732686_x_at) / Fold change /veh PIWIL2 (11732686_x_at) / RFU ORM1 (11744905_x_at) / Fold change /veh ORM1 (11744905_x_at) / RFU CCDC152 (11743942_at) / Fold change /veh CCDC152 (11743942_at) / RFU ECM1 (11717891_a_at) / Fold change /veh ECM1 (11717891_a_at) / RFU IL23R (11748794_a_at) / Fold change /veh IL23R (11748794_a_at) / RFU TNFAIP8L3 (11732012_x_at) / Fold change /veh TNFAIP8L3 (11732012_x_at) / RFU MBOAT4 (11741988_at) / Fold change /veh MBOAT4 (11741988_at) / RFU 11764193_at / Fold change /veh 11764193_at / RFU TMEM53 (11763286_at) / Fold change /veh TMEM53 (11763286_at) / RFU MAGEB2 (11727129_at) / Fold change /veh MAGEB2 (11727129_at) / RFU TMEM200A (11744735_a_at) / Fold change /veh TMEM200A (11744735_a_at) / RFU CCDC152 (11751479_a_at) / Fold change /veh CCDC152 (11751479_a_at) / RFU FAM211A (11726209_a_at) / Fold change /veh FAM211A (11726209_a_at) / RFU RGS16 (11746705_a_at) / Fold change /veh RGS16 (11746705_a_at) / RFU VCAN (11755009_s_at) / Fold change /veh VCAN (11755009_s_at) / RFU RHOB (11743442_s_at) / Fold change /veh RHOB (11743442_s_at) / RFU RGS16 (11720943_a_at) / Fold change /veh RGS16 (11720943_a_at) / RFU RGS16 (11720944_at) / Fold change /veh RGS16 (11720944_at) / RFU, VPS4B / Fold change vs veh, VPS4B / RFU, CREB1 / Fold change vs veh, CREB1 / RFU, DNAJC13 / Fold change vs veh, DNAJC13 / RFU, GNAQ / Fold change vs veh, GNAQ / RFU, CDK5R1 / Fold change vs veh, CDK5R1 / RFU, ZRANB3 / Fold change vs veh, ZRANB3 / RFU, CUL4A / Fold change vs veh, CUL4A / RFU, CCNY / Fold change vs veh, CCNY / RFU, UFL1 / Fold change vs veh, UFL1 / RFU, COG3 / Fold change vs veh, COG3 / RFU, DIAPH2 / Fold change vs veh, DIAPH2 / RFU, SKA2 / Fold change vs veh, SKA2 / RFU, AFF3 / Fold change vs veh, AFF3 / RFU, LMF1 / Fold change vs veh, LMF1 / RFU, IPO11 / Fold change vs veh, IPO11 / RFU, DFFB / Fold change vs veh, DFFB / RFU, FOXP1 / Fold change vs veh, FOXP1 / RFU, CARD8 / Fold change vs veh, CARD8 / RFU, STRN3 / Fold change vs veh, STRN3 / RFU, ADK / Fold change vs veh, ADK / RFU, RASSF2 / Fold change vs veh, RASSF2 / RFU, WIPF1 / Fold change vs veh, WIPF1 / RFU, LARP1B / Fold change vs veh, LARP1B / RFU, RASA1 / Fold change vs veh, RASA1 / RFU, RB1 / Fold change vs veh, RB1 / RFU, PPFIA1 / Fold change vs veh, PPFIA1 / RFU, MAT2A / Fold change vs veh, MAT2A / RFU, CCT5 / Fold change vs veh, CCT5 / RFU, WDR92 / Fold change vs veh, WDR92 / RFU, CUX1 / Fold change vs veh, CUX1 / RFU, TTC7A / Fold change vs veh, TTC7A / RFU, TMEM135 / Fold change vs veh, TMEM135 / RFU, DEPTOR / Fold change vs veh, DEPTOR / RFU, CPM / Fold change vs veh, CPM / RFU, DNAJB6 / Fold change vs veh, DNAJB6 / RFU, CACNA2D3 / Fold change vs veh, CACNA2D3 / RFU, DTX4 / Fold change vs veh, DTX4 / RFU, TFCP2 / Fold change vs veh, TFCP2 / RFU, GMCL1 /// GMCL1P1 / Fold change vs veh, GMCL1 /// GMCL1P1 / RFU, AEBP2 / Fold change vs veh, AEBP2 / RFU, SNHG1 /// SNORD22 /// SNORD25 /// SNORD26 /// SNORD27 /// SNORD28 /// SNORD29 /// SNORD31 / Fold change vs veh, SNHG1 /// SNORD22 /// SNORD25 /// SNORD26 /// SNORD27 /// SNORD28 /// SNORD29 /// SNORD31 / Fold change (Aza/veh), C12orf56 (ProbeSet 11735607_a_at) / Fold change (ACY-1035/veh), C12orf56 (ProbeSet 11735607_a_at) / Fold change (Aza/veh), FGFR1OP (ProbeSet 11751329_s_at) / Fold change (ACY-1035/veh), FGFR1OP (ProbeSet 11751329_s_at) / Fold change (Aza/veh), VPS36 (ProbeSet 11739960_a_at) / Fold change (ACY-1035/veh), VPS36 (ProbeSet 11739960_a_at) / RFU SYPL1 (11715823_x_at) / Fold change /veh SYPL1 (11715823_x_at) / RFU IGFBP7 (11715501_s_at) / Fold change /veh IGFBP7 (11715501_s_at) / RFU REEP3 (11722064_at) / Fold change /veh REEP3 (11722064_at) / RFU IGLL1 (11728026_x_at) / Fold change /veh IGLL1 (11728026_x_at): dose or concentration left out as unconfirmed", "settings": "MV-4-11 cells, 48 hours"}
{"smiles": "Nc1ncn([C@@H]2O[C@H](CO)[C@@H](O)[C@H]2O)c(=O)n1", "note": "[azacitidine]", "values": [{"measurement": "RFU TNFAIP8L3 (11732012_x_at)", "value": 9.37, "unit": "RFU"}]}
